Patent US9307761B2, “Microbial composition” (Rohm and Haas Company, priority 2011, dated 2016)

Key:
Assay type in all cases: cell-based
[1] = tested on: Escherichia coli (E. coli—ATCC #10536); assay: Synergy tests: high resolution MBC microtiter plate assay, 15 seconds contact, phosphate buffer containing […] dipropylene glycol; conditions: E. coli 10536; for SI (Synergy Index = Qa/QA + Qb/QB): at Qa and Qb, <1 synergy, 1 additivity, >1 antagonism; for MBC of the component acting alone (QA or QB): complete kill in 15 seconds
Source text: The concentrations and ratios may also vary under different test conditions or with different test methods.
One measure of synergy is the industrially accepted method described by Kull, F. C.; Eisman, P. C.; Sylwestrowicz, H. D. and Mayer, R. L., in Applied Microbiology 9:538-541 (1961), using the ratio determined by the formula: Qa/QA+Qb/QB=Synergy Index (“SI”) wherein: • QA=concentration of compound A (first component) in percent, acting alone, which produced an end point (MBC of Compound A). • Qa=concentration of compound A in percent, in the mixture, which produced an end point. • QB=concentration of compound B (second component) in percent, acting alone, which produced an end point (MBC of Compound B). • Qb=concentration of compound B in percent, in the mixture, which produced an end point.
When the sum of Qa/QA and Qb/QB is greater than one, antagonism is indicated. […] The lower the SI, the greater is the synergy shown by that particular mixture. The minimum biocidal concentration (MBC) of a microbicide is the lowest concentration tested under a specific set of conditions that provides complete kill of the tested microorganisms.
Synergy tests were conducted using standard microtiter plate assays with phosphate buffer containing 3.5% dipropylene glycol (DPG). In this method, a wide range of combinations of chemicals was tested by conducting high resolution MBC assays of Component (A) in the presence of various concentrations of Component (B). High resolution MBCs were determined by adding varying amounts of microbicide to one column of a microtiter plate and doing subsequent […] dilutions using an automated liquid handling system to obtain a series of closely spaced endpoints. The MBC plate was inoculated one column at a time with the test microorganism. An aliquot of the inoculated well was transferred at 15 seconds to a plate containing a neutralizing agent (D/E Neutralizing Broth), mixed and held for 5 minutes before being transferred to a growth plate containing trypticase soy broth (TSB). The TSB plate was incubated at 37° C. and read for the presence/absence of growth at 24 hours. The lowest level tested that provided complete kill (as evidenced by no growth in the microtitre plate) of the test organisms in 15 seconds is the minimum biocidal concentration (MBC).
The synergy of the combinations of the present invention was determined against a bacterium, Escherichia coli (E. coli—ATCC #10536), at a concentration of approximately 1×10^8 bacteria, per mL. This microorganism is representative of natural contaminants in many consumer and industrial applications.

[2] = tested on: Escherichia coli (E. coli—ATCC #10536); assay: Automated assessment of efficacy in model surfactant medium (2.85% sodium cocoyl glycinate and 1.85% sodium lauroamphoacetate), 15 seconds exposure, delta OD450/OD590; conditions: for MBC: Escherichia coli, ATCC10536, 15 s, in 2.85% sodium cocoyl glycinate + 1.85% sodium lauroamphoacetate solution at pH 10, E. coli, read-out: MBC (minimum biocidal concentration); for No. of replicates showing growth (out of 4) / Δ OD 450 nm = OD450 (time = 16 hours) − OD450 (time zero), Mean / Δ OD 590 nm OD590 (time = 16 hours) − OD590 (time zero), Mean: 15 s exposure
Description: Micobiocidal Activity of Actives as Per the Invention in a Model Surfactant Medium Test Methodology for Automated Assessment of Efficacy in Surfactant Base
Solutions were prepared such that the concentrations of the surfactant components and test actives were 1.1×the final desired concentration in order to allow for dilution with the bacterial inoculum in the test. The solutions were manually adjusted to […] by dropwise addition of sodium hydroxide solution, as measured with a pH meter at ambient temperature.
Tests were conducted using standard microtiter plate assays using an automated liquid handling system, 270 μl of the surfactant test solution was pipetted into each well of the microtitre plate and 30 μl of the bacterial suspension was then added. After exactly 15 seconds of bacterial exposure, a 30 μl volume of bacterial cells was withdrawn and transferred to 270 μl of D/E quench solution. After 5 minutes in the D/E quench, the optical density (OD) was measured for each plate in turn at two specific wavelengths (450 nm and 590 nm). These provide a dual check of antimicrobial activity, as the OD450 reading is specific for the yellow colour of D/E quench when bacterial growth is observed, whereas OD590 is specific for the initial purple colour of the D/E quench which is retained if no bacterial growth is observed. After the time zero OD measurements, plates were then incubated at 37° C. overnight (16 hours) before repeating the OD measurements. Delta OD values were calculated by subtracting […]. Bacterial growth is observed as art increase in OD450 and a decrease in ΔOD590. To identify antibacterially efficacious systems (those preventing appreciable bacterial growth after incubation), the following threshold changes in OD readings have been adopted: if (1). OD450 increases by less than 0.2 absorbance unit on incubation and (2). OD590 decreases by less than 0.35 unit on incubation. Conversely, where OD450 increases by more than 0.2 AU and OD590 decreases by more than 0.35 unit after incubation, corresponding to a colour shift from purple to yellow, the test system allows bacterial growth and is not deemed efficacious, four replicate measurements in the same plate have been made for each test system. The number of replicate wells showing either bacterial growth or no growth is also readily assessed by eye by following the colour change.
Dose responses for individual components and binary mixtures of actives at a fixed concentration ratio were generated by sequential dilution of liquors with further surfactant solution to obtain a series of endpoints.
In some selected cases, the combinations were also tested at the weight ratio 1:1.

[3] = tested on: Staphylococcus aureus (10788 strain); assay: Antimicrobial efficacy of actives against S. aureus in water, 15 seconds contact; conditions: for MBC (minimum biocidal concentration): against S. Aureus, in water; for NMBS: S. aureus
[4] = tested on: S. aureus; assay: Synergy of terpinyl alcohols with phenolic compounds in water against S. aureus, log reduction after 15 seconds contact
Description: The procedure used was as follows:
Liquid actives were used directly. Solid actives were dissolved in alcohol and a 50% stock was made.
Preparation of Test Cultures:
The culture was grown overnight in Tryptone soya agar.
To 9 ml water the actives were added to give the desired concentration. 1 ml of the culture was added and mixed. After 15 seconds contact 1 ml aliquot was removed and added to a neutraliser and kept for 5 minutes. A control of untreated cells was similarly processed. It was then diluted and plated. The plates were incubated at 37° C. for 24 hours. The colonies on the plates were counted. The counts were converted to log10. The log no. of survivors was determined and log reduction calculated.

[5] = tested on: Escherichia coli (10536 strain); assay: 15 seconds contact kill assay of actives in water, mean bacterial survival NMBS; conditions: E. coli; for NMBS: alone, 15 seconds contact; for MBC (minimum biocidal concentration): in water, component alone
[6] = single active alone at 0.125% w/v, water
[7] = single active alone at 0.05% w/v, model surfactant solution
[8] = single active alone at 0.1% w/v, model surfactant solution
[9] = single active alone at […] w/v, model surfactant solution
[10] = single active alone at 0.2% w/v, model surfactant solution

| Structure (SMILES) | SI (Synergy Index = Qa/QA + Qb/QB) [1] | MBC [2] [µg/mL] | MBC (minimum biocidal concentration) [3] [% w/v] | NMBS [3, 6] [log CFU/ml] | MBC (minimum biocidal concentration) [5] [% w/v] | NMBS ([5]; […] w/v) [log CFU/ml] | No. of replicates showing growth (out of 4) [2, 8] | Δ OD 450 nm = OD450 (time = 16 hours) − OD450 (time zero), Mean [2, 8] | Δ OD 590 nm OD590 (time = 16 hours) − OD590 (time zero), Mean [2, 8] | No. of replicates showing growth (out of 4) [2, 9] | Δ OD 450 nm = OD450 (time = 16 hours) − OD450 (time zero), Mean [2, 9] | Δ OD 590 nm OD590 (time = 16 hours) − OD590 (time zero), Mean [2, 9] | MBC of the component acting alone (QA or QB) [1] [weight %] | also measured |
| --- | --- | --- | --- | --- | --- | --- | --- | --- | --- | --- | --- | --- | --- | --- |
| C=C(C)[C@@H]1CC=C(CO)CC1 [(4S)-(4-(prop-1-en-2-yl)cyclohex-1-enyl)methanol] | 1.00 | 4000 | >1.0 | 7.19 | – | – | – | – | – | – | – | – | – | MBC of terpene alcohol ([2]; terpene alcohol alone, complete bacterial kill against E. coli, model surfactant solution): 0.4 % (w/v); NMBS ([3]; single active alone at 0.4% w/v, water): 7.14 log CFU/ml; NMBS ([3]; single active alone at 0.625% w/v, water): 7.15 log CFU/ml; NMBS ([3]; single active alone at 1.0% w/v, water): 7.39 log CFU/ml; MBC of terpene alcohol ([3]; terpene alcohol alone, complete bacterial kill against S. aureus, water): 1.0 % (w/v) |
| C=C(C)[C@@H]1CC=C(CO)CC1 [perillyl alcohol] | – | – | – | – | – | – | – | – | – | – | – | – | – | Log reduction S. aureus ATCC 6538 ([4]; terpinyl alcohol alone at […]): −0.6 |
| CCCc1ccccc1O [2-n-propylphenol] | – | – | 0.25 | 7.19 | 0.125 | 0 | 4 | −1.42 | 0.46 | 4 | −1.15 | 0.66 | – | NMBS ([5]; 0.05% w/v): 7.71 log CFU/ml; NMBS ([5]; 0.125% w/v): 0 log CFU/ml; No. of replicates showing growth (out of 4) [2, 7]: 4; Δ OD 450 nm = OD450 (time = 16 hours) − OD450 (time zero), Mean [2, 7]: −1.43; Δ OD 590 nm OD590 (time = 16 hours) − OD590 (time zero), Mean [2, 7]: 0.46; MBC of phenol ([3]; phenol alone, complete bacterial kill against S. aureus, water): 0.25 % (w/v); NMBS ([3]; single active alone at 0.1% w/v, water): 7.30 log CFU/ml; NMBS ([3]; single active alone at […] w/v, water): 0 log CFU/ml |
| C/C=C/c1ccccc1O [(E)-2-(prop-1-enyl)phenol] | 1.00 | – | – | – | – | – | 4 | −0.60 | 0.59 | 4 | −0.57 | 0.58 | 0.8 | No. of replicates showing growth (out of 4) [2, 10]: 4; Δ OD 450 nm = OD450 (time = 16 hours) − OD450 (time zero), Mean [2, 10]: −0.53; Δ OD 590 nm OD590 (time = 16 hours) − OD590 (time zero), Mean [2, 10]: 0.63 |
| CCCCc1ccc(O)cc1 [4-n-butylphenol] | – | > 2000 | – | – | 0.25 | 0 | – | – | – | – | – | – | 0.2 | NMBS ([5]; 0.0125% w/v): 7.85 log CFU/ml |
| CCC(C)c1ccc(O)cc1 (stereo not drawn) [4-sec butyl phenol] | – | – | – | – | – | – | – | – | – | – | – | – | – | Log reduction S. aureus ATCC 6538 ([4]; phenolic compound alone at 0.05%): 0.0 |
